Laboratory results published in patent EP4748903A1, “ULTRAVIOLET ABSORBER, ANTIOXIDANT, ANTI-GLYCATION AGENT, EXTERNAL PREPARATION FOR SKIN, COSMETIC, METHOD FOR PRODUCING COMPOUND, AND COMPOUND” (Meijo University, priority 2023, dated 2025).
Where two headings read alike, the source gives them in different places.

Tests used:
[1] = Measurement of ABTS radical scavenging activity; assay type: biochemical; conditions: for IC50: ABTS method, room temperature, dark; for β/α value: IC50 after 40 minutes (β) divided by IC50 after 20 minutes (α), ABTS radical scavenging
Procedure: To evaluate the antioxidant activity of saclipin A and saclipin B, 2,2-azino-bis(3-ethylbenzothiazoline-6-sulfonic acid) diammonium salt (ABTS) radical scavenging activity was measured.
The ABTS radical solution was diluted with ethanol such that the absorbance at 734 nm was about 1.0. 50 µL of this diluted ABTS radical solution and 50 µL of the test sample ethanol solution were mixed, and the mixed reactant was held at room temperature for 20 or 40 minutes in the dark, then the absorbance was measured at 734 nm. […] Ascorbic acid and Trolox were used as standard samples. Inhibition rates were calculated using the following equation. Inhibition activity (%) = ((Ab−As)/Ab) × 100 [formula]
Here, Ab and As represent the absorbances of the blank sample and the test sample, respectively.

[2] = Time course experiment of ABTS radical scavenging (temporal change in antioxidant activity); assay type: biochemical; conditions: recorded for 2900 seconds at 25°C, 734 nm; saclipin A 0.60 mM, saclipin B 0.18 mM, ascorbic acid 6 µM, Trolox 6 µM
Procedure: A 7 mM ABTS aqueous solution and a 2.45 mM potassium persulfate aqueous solution were mixed at 25°C for 16 hours in the dark to prepare an ABTS radical solution. The ABTS radical solution was diluted with ethanol such that the absorbance at 734 nm was about 1.0. 50 µL of this diluted ABTS radical solution and 50 µL of the test sample ethanol solution were mixed, and the mixed reactant was held at room temperature for 20 or 40 minutes in the dark, then the absorbance was measured at 734 nm. The final reaction concentration of the sample was adjusted to 0 mM, 0.06 mM, 0.12 mM, 0.18 mM, 0.24 mM, 0.30 mM, 0.60 mM, 1.20 mM, and 1.80 mM. Ascorbic acid and Trolox were used as standard samples. Inhibition rates were calculated using the following equation. Inhibition activity (%) = ((Ab−As)/Ab) × 100 [formula]
Therefore, the temporal change of radical scavenging was measured by a time course experiment. In the time course experiment, the decrease in absorbance after addition of the test sample was recorded continuously for 2900 seconds at 25°C and 734 nm. In the time course experiment, the final reaction concentrations of saclipin A, saclipin B, ascorbic acid, and Trolox were adjusted to 0.60 mM, 0.18 mM, 6 µM, and 6 µM, respectively.

collagen = assay: Collagen anti-glycation assay kit; assay type: biochemical; conditions: sample dissolved in DMSO; read-out: IC50 value, inhibition effect on glycation of collagen
Procedure: (§1) To evaluate the anti-glycation activity of saclipin A and saclipin B, the effect on glycation of elastin and collagen was investigated.
(§2) The effect of saclipin on the glycation of elastin and collagen was evaluated using an elastin anti-glycation assay kit (product number: AAS-AGE-K05, Cosmo Bio Co., Ltd.) and a collagen anti-glycation assay kit (product number: AK71, Cosmo Bio Co., Ltd.), respectively. The assay was performed according to the manufacturer's protocol using saclipin A and saclipin B purified from Suizenji-nori. However, since saclipin was not dissolved in the attached aqueous buffer solution, it was dissolved in dimethyl sulfoxide (DMSO) and subjected to an experiment. The final reaction concentration of the sample was adjusted to 0 mM, 0.5 mM, 1.0 mM, 2.0 mM, and 4.0 mM.

elastin = assay: Elastin anti-glycation assay kit; assay type: biochemical; conditions: for IC50: sample dissolved in DMSO, read-out: IC50 value, inhibition effect on the glycation reaction of elastin
Procedure: as §1, §2

[3] = test system: neonatal human dermal fibroblasts (NHDF); assay: MTT test on neonatal human dermal fibroblasts (biocompatibility test); assay type: cell-based; conditions: compared with 1% ethanol control; for appearance of cells (microphotographs): 10.0 µM; for cytotoxicity (cell viability, MTT): 0.1 to 10.0 µM
Procedure: (§3) In order to examine the cytotoxicity of saclipin A and saclipin B, MTT tests were performed on (1) neonatal human dermal fibroblasts and (2) human keratinocytes.
(§4) The neonatal human dermal fibroblasts (NHDF) were purchased from ATCC. The neonatal human dermal fibroblasts were seeded in 96-well plates at 1×10^4 cells/well. Neonatal human dermal fibroblasts were cultured overnight at 37°C, 5% CO2 using Dulbecco's modified eagle medium (DMEM) in which 10% fetal bovine serum, […], and 10 mM HEPES were added to DMEM. 0.1 µM, 0.36 µM, 1.0 µM, 3.6 µM, and 10.0 µM of saclipin A or saclipin B were added to each cell. As a control, 1% ethanol was added to the cells. Next, 0.5 mg/mL MTT(3-(4,5-dimethylthiazole-2-yl)-2,5-diphenyltetrazolium bromide) was added, and the mixture was cultured for 20 hours at 37°C, 5% CO2. The whole formazan crystals were dissolved in dimethyl sulfoxide (DMSO), and then the absorbance of each sample solution was measured at 540 nm to determine the cell viability.
(§5) The upper part of Fig. 12 is a graph showing the results of cell viability (%). The labels on the horizontal axis represent each sample corresponding to the bar graph. For example, the labels "saclipin A" "10.00" represent that the cells were treated with 10.0 µM saclipin A. The vertical axis represents the cell viability when the cell viability of cells treated with 1% ethanol is taken as 100%.

[4] = Photoisomerization by light irradiation, HPLC analysis; assay type: physicochemical; conditions: for time for which the amount ratio of saclipin A and saclipin B did not change: dark treatment after light irradiation
Procedure: Saclipin A purified from dried Suizenji-nori was dissolved in methanol, ethanol or acetonitrile, and the solution was irradiated with light of 6000 lux under a white fluorescent lamp for 24 hours or longer. Thereafter, HPLC analysis was performed under the following measurement conditions to calculate the amounts of saclipin A and saclipin B, and the isomerization rate of saclipin A was calculated. The chromatogram of the saclipin A solution before light irradiation is shown on the left in Fig. 6, and the chromatogram of the saclipin A solution after light irradiation is shown on the right in Fig. 6.
• Detection wavelength: 320 nm • Column: Inerteil ODS-P 3 µm, 4.6×33 + 4.6×150 mm • Eluent: 50% Acetonitrile (isocratic)

PSVK1 cells = assay: MTT test on human keratinocytes (biocompatibility test); assay type: cell-based; conditions: compared with 1% ethanol control; for appearance of cells (microphotographs): 10.0 µM; for cytotoxicity (cell viability, MTT): 0.1 to 10.0 µM
Procedure: as §3, §4
PSVK1 cells (JCRB1093, JCRB Cell Bank, National Institute of Biomedical Innovation, Health and Nutrition, Japan) were used as human keratinocytes. In this test, the test was carried out in the same manner as in "(1) MTT test on neonatal human dermal fibroblasts" described above except that the cells were cultured using a keratinocyte medium (Thermo Fisher Scientific) supplemented with 0.05 mg/mL bovine pituitary extract, 0.005 µg/mL epidermal growth factor, 100 units/mL penicillin, and 100 µg/mL streptomycin (Gibco).
as §5, with “Fig. 13” for “Fig. 12”, “viability (cell viability, %).” for “viability (%).”, “to each” for “to the”

[5] = Absorption spectrum analysis (ultraviolet absorption); assay type: physicochemical; conditions: methanol solution; for Molar absorption coefficient: at the absorption maximum
Procedure: The obtained dried sample was dissolved in methanol, and subjected to absorption spectrum analysis, high-resolution mass spectrometry, and measurement of ^1H and ^13C-NMR spectra. In each graph of Fig. 3, the horizontal axis represents wavelength (nm), and the vertical axis represents relative absorbance.
The absorption spectra of "saclipin A (Sac A)", "saclipin B (Sac B)", "methyl-esterified saclipin A (Sac A_methyl ester)", and "methyl-esterified saclipin B (Sac B_methyl ester)" were acquired by the method described in "2. Structure determination of saclipin A and saclipin B" described above. In each graph of Fig. 11, the horizontal axis represents wavelength (nm), and the vertical axis represents relative absorbance. The maximum point of saclipin A was 317 nm. The maximum point of methyl-esterified saclipin A was 316 nm. The maximum point of saclipin B was 319 nm. The maximum point of methyl-esterified saclipin B was 319 nm.

[6] = reaction time 20 min, read-out: IC50 value (µM) 20 min
[7] = reaction time 40 min, read-out: IC50 value (µM) 40 min

IC50 [1, 6] [µM] | IC50 [1, 7] [µM] | IC50 (collagen) [µM] | IC50 (elastin) [µM] | appearance of cells (microphotographs) [3] | time for which the amount ratio of saclipin A and saclipin B did not change [4] | dissolved saclipin A converted to saclipin B ([4]; methanol, ethanol or acetonitrile, 6000 lux white fluorescent lamp, 24 hours or longer) | appearance of cells (microphotographs) (PSVK1 cells) | Molar absorption coefficient [5] | Absorption maximum [5] [nm] | Absorption maximum ([5]; listed as Saclipin A) [nm] | Structure (SMILES) | β/α value [1] | temporal change of radical scavenging [2] | cytotoxicity (cell viability, MTT) [3] | cytotoxicity (cell viability, MTT) (PSVK1 cells) | glycation reaction inhibited (elastin) (elastin; concentration of 4 mM)
7.9 | 7.5 |  |  |  |  |  |  |  |  |  | O=C1O[C@H]([C@@H](O)CO)C(O)=C1O [Ascorbic acid, reference compound] | 0.95 | hardly functioned after a radical scavenging reaction occurred immediately after addition |  |  | 
6.7 | 6.7 |  |  |  |  |  |  |  |  |  | Cc1c(C)c2c(c(C)c1O)CCC(C)(C(=O)O)O2 (centres unmarked) [Trolox, 6-hydroxy-2,5,7,8-tetramethylchroman-2-carboxylic acid, reference compound] | 1.00 | hardly functioned after a radical scavenging reaction occurred immediately after addition |  |  | 
 |  | 2400 | 1500 |  |  |  |  |  |  |  | N=C(N)NN [aminoguanidine, reference compound] |  |  |  |  | 
974 | 717 | 1900 | 2500 | no abnormality was observed | at least 96 hours | About 90% | no abnormality was observed | 26,454 M^-1cm^-1 | 317 | 316 | CCC(=O)/C=C/C=C/C=C/C(=O)CCCCCCCC(=O)O [saclipin A, (10E,12E,14E)-9,16-Dioxooctadeca-10,12,14-trienoic acid] | 0.78 | proceeded even after 2900 seconds | not higher than that of 1% ethanol at any concentration | not higher than that of 1% ethanol at any concentration | 
182 | 142 | 900 |  | no abnormality was observed | at least 96 hours |  | no abnormality was observed | 30,555 M^-1cm^-1 | 319 |  | CCC(=O)/C=C/C=C\C=C\C(=O)CCCCCCCC(=O)O [saclipin B, (10E,12Z,14E)-9,16-Dioxooctadeca-10,12,14-trienoic acid] | 0.74 | proceeded even after 2900 seconds | not higher than that of 1% ethanol at any concentration | not higher than that of 1% ethanol at any concentration | about 45%
